Experimental data as given in PMC6237158, “HPLC–UV assay for the evaluation of inhibitors of plasma amine oxidase using crude bovine plasma” (Journal of Enzyme Inhibition and Medicinal Chemistry, 2018).

What was measured:
PAO in bovine plasma [1] = molecular target: T1, PAO in bovine plasma (Bos taurus, UniProt Q29437); assay: Conversion of amine substrates by bovine plasma (HPLC-UV); type: biochemical; conditions: substrate 250 µM, 6 µL bovine plasma in final volume 100 µL; mean ± SD, n = 3
T1 construct: crude bovine plasma can be used as enzyme source in this assay instead of the purified enzyme; tissue Coesfelder Fleischhandelsgesellschaft, Bernd Grewe (Coesfeld, Germany); host or cells: heparinised bovine blood plasma
T1 sequence (Q29437 17-762): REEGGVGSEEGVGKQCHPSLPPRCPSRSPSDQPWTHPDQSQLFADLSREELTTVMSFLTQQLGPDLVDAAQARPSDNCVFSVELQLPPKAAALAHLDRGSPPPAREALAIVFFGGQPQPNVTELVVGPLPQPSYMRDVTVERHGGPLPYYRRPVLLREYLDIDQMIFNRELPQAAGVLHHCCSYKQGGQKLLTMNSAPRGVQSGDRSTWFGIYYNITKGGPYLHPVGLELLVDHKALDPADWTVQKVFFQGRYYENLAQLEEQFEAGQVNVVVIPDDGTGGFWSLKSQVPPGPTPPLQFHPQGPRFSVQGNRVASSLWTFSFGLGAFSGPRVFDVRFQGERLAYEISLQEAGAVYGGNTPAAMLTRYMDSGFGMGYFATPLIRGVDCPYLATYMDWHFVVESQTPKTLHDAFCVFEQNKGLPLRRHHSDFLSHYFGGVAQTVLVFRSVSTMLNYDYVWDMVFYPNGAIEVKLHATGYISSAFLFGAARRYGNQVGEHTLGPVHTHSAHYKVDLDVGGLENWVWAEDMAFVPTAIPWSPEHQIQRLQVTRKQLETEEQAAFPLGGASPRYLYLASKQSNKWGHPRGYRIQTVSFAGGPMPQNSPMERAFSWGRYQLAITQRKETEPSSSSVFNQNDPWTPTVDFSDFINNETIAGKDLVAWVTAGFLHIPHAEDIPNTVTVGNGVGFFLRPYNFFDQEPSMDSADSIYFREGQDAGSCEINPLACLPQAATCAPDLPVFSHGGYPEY
Protocol: Determination of the conversion rates of different amine substrates by bovine plasma. The conversion rates of the amine substrates 1–7 to the corresponding aldehydes 8–14 by bovine plasma was measured as described previously, with the modification that the solution of the isolated PAO in PBS (0.19 mg/mL) (95 µL) was replaced by PBS (89 µL) and bovine plasma (6 µL).

purified bovine PAO = molecular target: T2, purified bovine PAO (Bos taurus, UniProt Q29437); design: method as in PMID 27129976, PMID 29550344; conditions: substrate 250 µM, 18 µg purified PAO in final volume 100 µL; mean ± SD, n = 3; cited from earlier work
T2 construct: bovine PAO purified from bovine plasma; purchased Abnova, Taipei, Taiwan delivered via Biozol, Eching, Germany; host or cells: bovine plasma
T2 sequence (Q29437 17-762): T1 sequence (Q29437 17-762)

PAO in bovine plasma [2] = molecular target: T1, PAO in bovine plasma; assay: Inhibitor screening with pre-incubation of bovine plasma with the inhibitor (HPLC-UV); type: biochemical; conditions: for block of substrate transformation, bovine plasma: 10 µM, pre-incubation conditions; for IC50: with pre-incubation of enzyme and inhibitor (15 min, 37 °C), n = 3
Protocol: General procedure for inhibitor screening with pre-incubation of bovine plasma with the inhibitor. To a DMSO solution of the appropriate inhibitor (concentration variable) (2.5 µL) was added a dilution of bovine plasma in PBS (95 µL), prepared by mixing 89 volume parts of PBS with 6 volume parts of bovine plasma. The resulting mixture was pre-incubated at 37 °C for 15 min. Then the incubation was started at 37 °C by addition of a solution of the substrate 4 (10 mM) in DMSO (2.5 µL). After 45 min, the enzyme reaction was terminated by the addition of acetonitrile (100 µL). The samples were further treated and analysed as described above in the inhibition experiments done without pre-incubation. Controls (n = 3) and a blank were prepared analogously. The experiments using benzylamine (7) as substrate were carried out in the same way with the modifications that aliquots (150 µL) of the supernatants obtained after addition of acetonitrile and centrifugation were diluted with water (150 µL), and acetonitrile/aqueous ammonium acetate solution (10 mM, pH 6) (45:55, v/v) was used as eluent at a detection wavelength of 250 nm.

purified PAO = molecular target: T3, purified PAO (Bos taurus, UniProt Q29437); assay: Inhibition of purified PAO after pre-incubation of enzyme with inhibitor; type: biochemical, bovine; conditions: 10 µM; pre-incubation conditions
T3 construct: we used the enzyme isolated and purified from bovine plasma; host or cells: bovine plasma
T3 sequence (Q29437 17-762): T1 sequence (Q29437 17-762)
Source text: 2-(4-Phenylphenyl)acetohydrazide (16) is known to inhibit PAO by forming covalent bonds with the cofactor topaquinone.
Finally, we wanted to confirm that the amine oxidases MAO A, MAO B, and DAO are not involved in substrate conversion by bovine plasma using specific inhibitorsof these enzymes.

MAO A = system: MAO A; design: method as in PMID 29550344; conditions: 0.1 µM; pre-incubation conditions; cited from earlier work
PAO in bovine plasma [3] = molecular target: T1, PAO in bovine plasma; assay: Inhibitor screening without pre-incubation of bovine plasma with the inhibitor (HPLC-UV); type: biochemical; conditions: without pre-incubation of enzyme and inhibitor, n = 3
Protocol: Determination of the IC50-values of the PAO inhibitor 2-(4-phenylphenyl)acetohydrazide (16) with bovine plasma using different substrates.
General procedure for inhibitor screening without pre-incubation of bovine plasma with the inhibitor. A mixture of a DMSO solution of 4 (10 mM) (2.5 µL), a DMSO solution of the appropriate inhibitor (concentration variable) (2.5 µL) and PBS buffer (pH 7.4) (89 µL) was treated with bovine plasma (6 µL). After incubation at 37 °C for 45 min, the enzyme reaction was terminated by the addition of acetonitrile (100 µL). The sample was cooled in an ice bath for 10 min and centrifuged at 12,000 × g and 10 °C for 5 min. An aliquot of the supernatant (150 µL) was diluted with aqueous TRIS buffer (100 mM, pH 8.5 at 20 °C) (150 µL), allowed to stand at room temperature for 30 min, and analysed by HPLC. The HPLC–UV-system consisted of a Thermo Scientific Dionex UltiMate 3000 system including an autosampler and a variable wavelength detector (ThermoFisher Scientific, Germering, Germany). Separation was achieved on a Luna 3 u C8(2) analytical column (3 mm inside diameter× 150 mm, particle size 3 µm) (Phenomenex, Aschaffenburg, Germany) protected with a Phenomenex Phenyl guard column (3 mm inside diameter ×4 mm). The injection volume was 50 µL. Temperature of the autosampler was set to 10 °C, the temperature of the column oven was 20 °C. HPLC analysis was run isocratically using acetonitrile/aqueous TRIS buffer (50 mM, pH 8.5 at 20 °C) (35:65, v/v) as eluent at a flow rate of 0.4 mL/min. […] Controls with DMSO (2.5 µL) instead of a DMSO solution of the inhibitor (2.5 µL) were prepared in the same manner in parallel (n = 3). Furthermore, a blank incubation, in which the enzyme solution was replaced by the buffer used for dissolving the enzyme, was carried out. The relative inhibition values were determined at different inhibitor concentrations and calculated as the ratio of the areas of the 1,3-oxazolidine 15 peaks formed in presence and absence of the test compounds (corrected by the blank value). […] The experiments using benzylamine (7) as substrate were carried out in the same way with the modifications that aliquots (150 µL) of the supernatants obtained after addition of acetonitrile and centrifugation were diluted with water (150 µL) and acetonitrile/aqueous ammonium acetate solution (10 mM, pH 6) (45:55, v/v) was used as eluent at a detection wavelength of 250 nm.

DAO = system: DAO; design: method as in PMID 29550344; conditions: 10 µM; pre-incubation conditions; cited from earlier work

## NCCCCn1nnc(-c2ccccc2)n1 [Compound 2, 4-(5-Phenyl-2H-tetrazol-2-yl)butan-1-amine]
PAO in bovine plasma [1]
  Conversion of substrate, Bovine plasma: 66 ± 5.6%
Purified bovine PAO
  Conversion of substrate, Purified PAO: 55 ± 2.6%

## NCCCn1nnc(-c2ccccc2)n1 [Compound 1, 3-(5-Phenyl-2H-tetrazol-2-yl)propan-1-amine]
PAO in bovine plasma [1]
  Conversion of substrate, Bovine plasma: 5 ± 0.8%
Purified bovine PAO
  Conversion of substrate, Purified PAO: 12 ± 0.8%

## C#CCN(C)CCCOc1ccc(Cl)cc1Cl [clorgiline]
PAO in bovine plasma [2]
  block of substrate transformation, bovine plasma: neither of these compounds blocked the substrate transformation
Purified PAO
  block of substrate transformation, purified PAO: neither of these compounds blocked the substrate transformation
MAO A
  reduction of MAO A activity: more than 95%

## NCCCCCCCCn1nnc(-c2ccccc2)n1 [Compound 6, 8-(5-Phenyl-2H-tetrazol-2-yl)octan-1-amine]
PAO in bovine plasma [1]
  Conversion of substrate, Bovine plasma: 26 ± 1.8%
Purified bovine PAO
  Conversion of substrate, Purified PAO: 25 ± 1.2%

## NNC(=O)Cc1cccc(-c2ccccc2)c1 [Compound 18, 2-(3-Phenylphenyl)acetohydrazide]
PAO in bovine plasma [3]; substrate benzylamine (7)
  IC50: 620 ± 50 nM
PAO in bovine plasma [3]; substrate hexan-1-amine 4
  IC50: 20000 ± 1000 nM
PAO in bovine plasma [2]; substrate benzylamine
  IC50: 240 ± 30 nM
PAO in bovine plasma [2]; substrate hexan-1-amine 4
  IC50: 380 ± 20 nM

## C#CCN(C)[C@H](C)Cc1ccccc1 [selegiline]
PAO in bovine plasma [2]
  block of substrate transformation, bovine plasma: neither of these compounds blocked the substrate transformation
Purified PAO
  block of substrate transformation, purified PAO: neither of these compounds blocked the substrate transformation

## NCCCCCCCn1nnc(-c2ccccc2)n1 [Compound 5, 7-(5-Phenyl-2H-tetrazol-2-yl)heptan-1-amine]
PAO in bovine plasma [1]
  Conversion of substrate, Bovine plasma: 23 ± 2.1%
Purified bovine PAO
  Conversion of substrate, Purified PAO: 30 ± 1.1%

## NC(=Nc1ccccc1)NC(=O)c1nc(Cl)c(N)nc1N [phenamil]
PAO in bovine plasma [2]
  block of substrate transformation, bovine plasma: neither of these compounds blocked the substrate transformation
Purified PAO
  block of substrate transformation, purified PAO: neither of these compounds blocked the substrate transformation
DAO
  inhibition of DAO: 43%

## NCCCCCCn1nnc(-c2ccccc2)n1 [Compound 4, 6-(5-Phenyl-2H-tetrazol-2-yl)hexan-1-amine]
PAO in bovine plasma [1]
  Conversion of substrate, Bovine plasma: 51 ± 1.5%
Purified bovine PAO
  Conversion of substrate, Purified PAO: 57 ± 1.4%

## NCc1ccccc1 [Compound 7, Benzylamine]
PAO in bovine plasma [1]
  Conversion of substrate, Bovine plasma: 30 ± 2.0%
Purified bovine PAO
  Conversion of substrate, Purified PAO: 20 ± 2.1%

## NCCCCCn1nnc(-c2ccccc2)n1 [Compound 3, 5-(5-Phenyl-2H-tetrazol-2-yl)pentan-1-amine]
PAO in bovine plasma [1]
  Conversion of substrate, Bovine plasma: 51 ± 4.3%
Purified bovine PAO
  Conversion of substrate, Purified PAO: 45 ± 1.3%
